Laboratory results from PubChem BioAssay (NCI).
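Interpolation was linear, between the two tested concentrations surrounding the appropriate level; five concentrations were tested over 48 hours in 96-well plates. TGI: total growth inhibition.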

What was measured:
Experiment in all cases: NCI-60 cell line screen, 48 h
786-0 renal = system: 786-0 renal
A498 renal = system: A498 renal
ACHN renal = system: ACHN renal
BT-549 breast = system: BT-549 breast
CAKI-1 renal = system: CAKI-1 renal
CCRF-CEM leukemia = system: CCRF-CEM leukemia
COLO 205 colon = system: COLO 205 colon
DU-145 prostate = system: DU-145 prostate
EKVX NSCLC = system: EKVX NSCLC
HCT-116 colon = system: HCT-116 colon
HCT-15 colon = system: HCT-15 colon
HL-60(TB) leukemia = system: HL-60(TB) leukemia
HS 578T breast = system: HS 578T breast
HT29 colon = system: HT29 colon
IGROV1 ovarian = system: IGROV1 ovarian
K-562 leukemia = system: K-562 leukemia
KM12 colon = system: KM12 colon
LOX IMVI melanoma = system: LOX IMVI melanoma
M14 melanoma = system: M14 melanoma
MALME-3M melanoma = system: MALME-3M melanoma
MCF7 breast = system: MCF7 breast
MDA-MB-231 breast = system: MDA-MB-231 breast
MDA-MB-435 = system: MDA-MB-435
MDA-N = system: MDA-N
MOLT-4 leukemia = system: MOLT-4 leukemia
NCI-H226 lung = system: NCI-H226 lung
NCI-H23 lung = system: NCI-H23 lung
NCI/ADR-RES ovarian = system: NCI/ADR-RES ovarian
OVCAR-3 ovarian = system: OVCAR-3 ovarian
OVCAR-5 ovarian = system: OVCAR-5 ovarian
OVCAR-8 ovarian = system: OVCAR-8 ovarian
PC-3 prostate = system: PC-3 prostate
RPMI-8226 leukemia = system: RPMI-8226 leukemia
RXF 393 renal = system: RXF 393 renal
SF-268 CNS = system: SF-268 CNS
SF-295 CNS = system: SF-295 CNS
SF-539 CNS = system: SF-539 CNS
SK-MEL-2 melanoma = system: SK-MEL-2 melanoma
SK-MEL-28 melanoma = system: SK-MEL-28 melanoma
SK-MEL-5 melanoma = system: SK-MEL-5 melanoma
SN12C renal = system: SN12C renal
SNB-19 CNS = system: SNB-19 CNS
SNB-75 CNS = system: SNB-75 CNS
SW-620 colon = system: SW-620 colon
T-47D breast = system: T-47D breast
TK-10 renal = system: TK-10 renal
U251 CNS = system: U251 CNS
UACC-257 melanoma = system: UACC-257 melanoma
UACC-62 melanoma = system: UACC-62 melanoma
UO-31 renal = system: UO-31 renal
A549 NSCLC = system: A549 NSCLC
HOP-62 NSCLC = system: HOP-62 NSCLC
HOP-92 NSCLC = system: HOP-92 NSCLC
NCI-H460 lung = system: NCI-H460 lung
NCI-H522 lung = system: NCI-H522 lung
OVCAR-4 ovarian = system: OVCAR-4 ovarian
SK-OV-3 ovarian = system: SK-OV-3 ovarian

With CCOC(=O)CO/N=C\C1=CC(=O)C2CC1C2(C)C (configuration not stated) the TGI (786-0 renal) was > 100 µM, the TGI (A498 renal) was > 100 µM and the TGI (ACHN renal) was > 100 µM. The TGI (BT-549 breast) was > 100 µM, the TGI (CAKI-1 renal) was > 100 µM and the TGI (CCRF-CEM leukemia) was > 100 µM. The TGI (COLO 205 colon) was > 100 µM, the TGI (DU-145 prostate) was > 100 µM and the TGI (EKVX NSCLC) was > 100 µM. For the same compound, the TGI (HCT-116 colon) was > 100 µM, the TGI (HCT-15 colon) was > 100 µM and the TGI (HL-60(TB) leukemia) was > 100 µM. For the same compound, the TGI (HS 578T breast) was > 100 µM, the TGI (HT29 colon) was > 100 µM and the TGI (IGROV1 ovarian) was > 100 µM. The TGI (K-562 leukemia) was > 100 µM, the TGI (KM12 colon) was > 100 µM and the TGI (LOX IMVI melanoma) was > 100 µM. The TGI (M14 melanoma) was > 100 µM, the TGI (MALME-3M melanoma) was > 100 µM and the TGI (MCF7 breast) was > 100 µM. The TGI (MDA-MB-231 breast) was > 100 µM, the TGI (MDA-MB-435) was > 100 µM and the TGI (MDA-N) was > 100 µM. The TGI (MOLT-4 leukemia) was > 100 µM, the TGI (NCI-H226 lung) was > 100 µM and the TGI (NCI-H23 lung) was > 100 µM. For the same compound, the TGI (NCI/ADR-RES ovarian) was > 100 µM, the TGI (OVCAR-3 ovarian) was > 100 µM and the TGI (OVCAR-5 ovarian) was > 100 µM. The TGI (OVCAR-8 ovarian) was > 100 µM, the TGI (PC-3 prostate) was > 100 µM and the TGI (RPMI-8226 leukemia) was > 100 µM. The TGI (RXF 393 renal) was > 100 µM, the TGI (SF-268 CNS) was > 100 µM and the TGI (SF-295 CNS) was > 100 µM. For the same compound, the TGI (SF-539 CNS) was > 100 µM, the TGI (SK-MEL-2 melanoma) was > 100 µM and the TGI (SK-MEL-28 melanoma) was > 100 µM. For the same compound, the TGI (SK-MEL-5 melanoma) was > 100 µM, the TGI (SN12C renal) was > 100 µM and the TGI (SNB-19 CNS) was > 100 µM. The TGI (SNB-75 CNS) was > 100 µM, the TGI (SW-620 colon) was > 100 µM and the TGI (T-47D breast) was > 100 µM. For the same compound, the TGI (TK-10 renal) was > 100 µM, the TGI (U251 CNS) was > 100 µM and the TGI (UACC-257 melanoma) was > 100 µM. For the same compound, the TGI (UACC-62 melanoma) was > 100 µM and the TGI (UO-31 renal) was > 100 µM.
In the case of CCOP(=O)(CN1CCNCCN(CP(=O)(OCC)OCC)CC1)OCC, the TGI (786-0 renal) is reported as > 100 µM, the TGI (A498 renal) is reported as > 100 µM and the TGI (A549 NSCLC) is reported as > 100 µM. For the same compound, the TGI (ACHN renal) was > 100 µM, the TGI (BT-549 breast) was > 100 µM and the TGI (CAKI-1 renal) was > 100 µM. The TGI (CCRF-CEM leukemia) was > 31.6 µM, the TGI (COLO 205 colon) was > 100 µM and the TGI (DU-145 prostate) was > 100 µM. The TGI (EKVX NSCLC) was > 100 µM, the TGI (HCT-116 colon) was > 100 µM and the TGI (HCT-15 colon) was > 100 µM. The TGI (HL-60(TB) leukemia) was > 100 µM, the TGI (HOP-62 NSCLC) was > 100 µM and the TGI (HOP-92 NSCLC) was > 100 µM. The TGI (HS 578T breast) was > 100 µM, the TGI (HT29 colon) was > 100 µM and the TGI (IGROV1 ovarian) was > 100 µM. For the same compound, the TGI (K-562 leukemia) was > 100 µM, the TGI (KM12 colon) was > 100 µM and the TGI (LOX IMVI melanoma) was > 100 µM. The TGI (M14 melanoma) was > 100 µM, the TGI (MALME-3M melanoma) was > 30.4 µM and the TGI (MCF7 breast) was > 100 µM. For the same compound, the TGI (MDA-MB-231 breast) was > 100 µM, the TGI (MDA-MB-435) was > 100 µM and the TGI (MDA-N) was > 100 µM. For the same compound, the TGI (MOLT-4 leukemia) was > 100 µM, the TGI (NCI-H226 lung) was > 100 µM and the TGI (NCI-H23 lung) was > 100 µM. For the same compound, the TGI (NCI-H460 lung) was > 100 µM, the TGI (NCI-H522 lung) was > 100 µM and the TGI (NCI/ADR-RES ovarian) was > 100 µM. The TGI (OVCAR-3 ovarian) was > 100 µM, the TGI (OVCAR-4 ovarian) was > 100 µM and the TGI (OVCAR-5 ovarian) was > 100 µM. For the same compound, the TGI (OVCAR-8 ovarian) was > 100 µM, the TGI (PC-3 prostate) was > 100 µM and the TGI (RPMI-8226 leukemia) was > 100 µM. The TGI (RXF 393 renal) was > 100 µM, the TGI (SF-268 CNS) was > 100 µM and the TGI (SF-295 CNS) was > 100 µM. The TGI (SF-539 CNS) was > 100 µM, the TGI (SK-MEL-2 melanoma) was > 100 µM and the TGI (SK-MEL-28 melanoma) was > 100 µM. For the same compound, the TGI (SK-MEL-5 melanoma) was > 100 µM, the TGI (SK-OV-3 ovarian) was > 100 µM and the TGI (SN12C renal) was > 100 µM. For the same compound, the TGI (SNB-19 CNS) was > 100 µM, the TGI (SNB-75 CNS) was > 100 µM and the TGI (SW-620 colon) was > 100 µM. For the same compound, the TGI (T-47D breast) was > 100 µM, the TGI (TK-10 renal) was > 100 µM and the TGI (U251 CNS) was > 100 µM. For the same compound, the TGI (UACC-257 melanoma) was > 100 µM, the TGI (UACC-62 melanoma) was > 100 µM and the TGI (UO-31 renal) was > 100 µM.
